Values quoted from earlier work, collected in patent publication US10590413B2, “Chiral control” (WAVE LIFE SCIENCES LTD., priority 2012, dated 2020).
Where two headings read alike, the source gives them in different places. [Rp] = phosphorothioate linkage, Rp; [5mC] = 5-methylcytosine

Legend:
[1] = system: Mouse B Cells; conditions: mean and std. dev. of at least 3 experiments, compared to wells with no added ODN, cited from earlier work
[2] = system: Murine IL-6 production and B cell activation; conditions: cited from earlier work; for IL-6 (pg/ml) CH12.LX: CH12.LX cells; for SI (stimulation index, [3H] uridine uptake, fold increase from unstimulated control): cells stimulated with 20 μM CpG O-ODN; for SI (stimulation index, [3H] uridine uptake, fold increase from unstimulated control) / SI (stimulation index, [3H] uridine uptake): mean ± SD of triplicates; for SI (stimulation index, [3H] uridine uptake): fold increase from unstimulated control, 20 μM CpG O-ODN; for IgM: measured by ELISA, unstimulated culture 547 ± 82 ng/ml; for IL-6 (pg/ml) SPLENIC B CELL: splenic B cells
[3] = system: human PBMC; conditions: cited from earlier work
[4] = unstimulated control ≤10 pg/ml, US 6,239,116 Table 2
[5] = ODN 12 μg/ml, 4 hr, 10% autologous serum, level above wells with no ODN, ELISA
[6] = ODN 12 μg/ml, 24 hr, 10% autologous serum, level above wells with no ODN, ELISA

1b (DNA GCTAGACGTTAGCGT; Z modified cytosine, further chemistry not given here) [Oligonucleotide 1b]
Stimulation Index, 3H Uridine ([1]; US 6,239,116 Table 1): 1.2 ± 0.1 | Stimulation Index, IgM Production ([1]; US 6,239,116 Table 1): 1.8 ± 0.0 | Stimulation Index, 3H Uridine [1]: 1.2 ± 0.1

1c (DNA GCTAGACGTTAGCGT; chemistry not fully specified) [Oligonucleotide 1c]
Stimulation Index, 3H Uridine ([1]; US 6,239,116 Table 1): 10.3 ± 4.4 | Stimulation Index, IgM Production ([1]; US 6,239,116 Table 1): 9.5 ± 1.8 | Stimulation Index, 3H Uridine [1]: 10.3 ± 4.4

1d (DNA GCATGACGTTGAGCT; DNA, backbone not given here; further chemistry not fully specified) [Oligonucleotide 1d]
Stimulation Index, 3H Uridine ([1]; US 6,239,116 Table 1): 13.0 ± 2.3 | Stimulation Index, IgM Production ([1]; US 6,239,116 Table 1): 18.3 ± 7.5 | Stimulation Index, 3H Uridine [1]: 13.0 ± 2.3

2c (DNA ATCGACTCTCGAGCGTTCTC; chemistry not fully specified) [Oligonucleotide 2c]
Stimulation Index, 3H Uridine ([1]; US 6,239,116 Table 1): 3.1 ± 0.6 | Stimulation Index, IgM Production ([1]; US 6,239,116 Table 1): 7.3 ± 1.4 | Stimulation Index, 3H Uridine [1]: 3.1 ± 0.6

2d (DNA ATCGACTCTCGAGCGTTCTC; DNA, [5mC] at 18, backbone not given here) [Oligonucleotide 2d]
Stimulation Index, 3H Uridine ([1]; US 6,239,116 Table 1): 7.4 ± 1.4 | Stimulation Index, IgM Production ([1]; US 6,239,116 Table 1): 27.7 ± 5.4 | Stimulation Index, 3H Uridine [1]: 7.4 ± 1.4

3D (DNA GAGAACGCTGGACCTTCCAT; chemistry not fully specified) [Oligonucleotide 3D]
Stimulation Index, 3H Uridine ([1]; US 6,239,116 Table 1): 4.9 ± 0.5 | Stimulation Index, IgM Production ([1]; US 6,239,116 Table 1): 19.9 ± 3.6 | Stimulation Index, 3H Uridine [1]: 4.9 ± 0.5

3Db (DNA GAGAACGCTCGACCTTCGAT; chemistry not fully specified) [Oligonucleotide 3Db]
Stimulation Index, 3H Uridine ([1]; US 6,239,116 Table 1): 10.1 ± 2.8 | Stimulation Index, IgM Production ([1]; US 6,239,116 Table 1): 25.4 ± 0.8 | Stimulation Index, 3H Uridine [1]: 10.1 ± 2.8

3Dc (DNA GAGCAAGCTGGACCTTCCAT; chemistry not fully specified) [Oligonucleotide 3Dc]
Stimulation Index, 3H Uridine ([1]; US 6,239,116 Table 1): 1.0 ± 0.1 | Stimulation Index, IgM Production ([1]; US 6,239,116 Table 1): 1.2 ± 0.5 | Stimulation Index, 3H Uridine [1]: 1.0 ± 0.1

3Df (DNA GAGAACGATGGACCTTCCAT; chemistry not fully specified) [Oligonucleotide 3Df]
Stimulation Index, 3H Uridine ([1]; US 6,239,116 Table 1): 1.6 ± 0.1 | Stimulation Index, IgM Production ([1]; US 6,239,116 Table 1): 7.7 ± 0.4 | Stimulation Index, 3H Uridine [1]: 1.6 ± 0.1

3Dg (DNA GAGAACGCTCCAGCACTGAT; chemistry not fully specified) [Oligonucleotide 3Dg]
Stimulation Index, 3H Uridine ([1]; US 6,239,116 Table 1): 6.1 ± 1.5 | Stimulation Index, IgM Production ([1]; US 6,239,116 Table 1): 18.6 ± 1.5 | Stimulation Index, 3H Uridine [1]: 6.1 ± 1.5

3Ma (DNA TCCATGCTGGTCCTGATGCT; chemistry not fully specified) [Oligonucleotide 3Ma]
Stimulation Index, 3H Uridine ([1]; US 6,239,116 Table 1): 0.9 ± 0.1 | Stimulation Index, IgM Production ([1]; US 6,239,116 Table 1): 1.8 ± 0.5 | Stimulation Index, 3H Uridine [1]: 0.9 ± 0.1

3Mc (DNA TCCATGTCGGTCCTGATGCT; Z modified cytosine, further chemistry not given here) [Oligonucleotide 3Mc]
Stimulation Index, 3H Uridine ([1]; US 6,239,116 Table 1): 5.4 ± 1.5 | Stimulation Index, IgM Production ([1]; US 6,239,116 Table 1): 8.5 ± 2.6 | Stimulation Index, 3H Uridine [1]: 5.4 ± 1.5

3Md (DNA TCCATGACGTTCCTGATGCT; chemistry not given here) [Oligonucleotide 3Md]
Stimulation Index, 3H Uridine ([1]; US 6,239,116 Table 1): 17.2 ± 9.4 | Stimulation Index, 3H Uridine [1]: 17.2 ± 9.4

3Me (DNA TCCATGTCGGTCCTGCTGAT; chemistry not given here) [Oligonucleotide 3Me]
Stimulation Index, 3H Uridine ([1]; US 6,239,116 Table 1): 3.6 ± 0.2 | Stimulation Index, IgM Production ([1]; US 6,239,116 Table 1): 14.2 ± 5.2 | Stimulation Index, 3H Uridine [1]: 3.6 ± 0.2

4b (DNA TCAGCGCT; chemistry not fully specified) [Oligonucleotide 4b]
Stimulation Index, 3H Uridine ([1]; US 6,239,116 Table 1): 4.5 ± 0.2 | Stimulation Index, IgM Production ([1]; US 6,239,116 Table 1): 9.6 ± 3.4 | Stimulation Index, 3H Uridine [1]: 4.5 ± 0.2

4c (DNA TCATCGAT; chemistry not given here) [Oligonucleotide 4c]
Stimulation Index, 3H Uridine ([1]; US 6,239,116 Table 1): 2.7 ± 1.0 | Stimulation Index, 3H Uridine [1]: 2.7 ± 1.0

4d (DNA TCTTCGAA; chemistry not fully specified) [Oligonucleotide 4d]
Stimulation Index, 3H Uridine ([1]; US 6,239,116 Table 1): 1.3 ± 0.2 | Stimulation Index, 3H Uridine [1]: 1.3 ± 0.2

4e (DNA CAACGTT; chemistry not fully specified) [Oligonucleotide 4e]
Stimulation Index, 3H Uridine ([1]; US 6,239,116 Table 1): 1.3 ± 0.2 | Stimulation Index, IgM Production ([1]; US 6,239,116 Table 1): 1.1 ± 0.5 | Stimulation Index, 3H Uridine [1]: 1.3 ± 0.2

4f (DNA CCAACGTT; chemistry not fully specified) [Oligonucleotide 4f]
Stimulation Index, 3H Uridine ([1]; US 6,239,116 Table 1): 3.9 ± 1.4 | Stimulation Index, 3H Uridine [1]: 3.9 ± 1.4

4g (DNA AACGTTCT; chemistry not given here) [Oligonucleotide 4g]
Stimulation Index, 3H Uridine ([1]; US 6,239,116 Table 1): 1.4 ± 0.3 | Stimulation Index, 3H Uridine [1]: 1.4 ± 0.3

4h (DNA TCAACGTC; chemistry not fully specified) [Oligonucleotide 4h]
Stimulation Index, 3H Uridine ([1]; US 6,239,116 Table 1): 1.2 ± 0.2 | Stimulation Index, 3H Uridine [1]: 1.2 ± 0.2

1614 (DNA TCCATGACGGTCCTGATGCT; chemistry not given here) [Oligonucleotide 1614]
IL-6 (pg/ml) CH12.LX [2]: 1533 ± 321 pg/mL | IL-6 (pg/ml) CH12.LX [2, 4]: 1533 ± 321 pg/mL | SI (stimulation index, [3H] uridine uptake, fold increase from unstimulated control) [2]: 10.8 ± 0.6 | SI (stimulation index, [3H] uridine uptake) [2]: 10.8 ± 0.6 | IgM [2]: 7558 ± 414 ng/mL | IL-6 (pg/ml) SPLENIC B CELL [2]: 1812 ± 103 pg/mL | IL-6 (pg/ml) SPLENIC B CELL [2, 4]: 1812 ± 103 pg/mL | TNF-α [3, 5]: 31 pg/mL | GM-CSF [3, 6]: 50 pg/mL | IFN-γ [3, 6]: 0 pg/mL | IL-6 [3, 6]: 550 pg/mL | IL-12 [3, 6]: 31 pg/mL

1615 (DNA TCCATGGCGGTCCTGATGCT; chemistry not given here) [Oligonucleotide 1615]
IL-6 (pg/ml) CH12.LX [2]: 1201 ± 155 pg/mL | IL-6 (pg/ml) CH12.LX [2, 4]: 1201 ± 155 pg/mL | SI (stimulation index, [3H] uridine uptake, fold increase from unstimulated control) [2]: 3.7 ± 0.3 | SI (stimulation index, [3H] uridine uptake) [2]: 3.7 ± 0.3 | IgM [2]: 3212 ± 617 ng/mL | IL-6 (pg/ml) SPLENIC B CELL [2]: 850 ± 202 pg/mL | IL-6 (pg/ml) SPLENIC B CELL [2, 4]: 850 ± 202 pg/mL | TNF-α [3, 5]: 145 pg/mL | GM-CSF [3, 6]: 45 pg/mL | IFN-γ [3, 6]: 7.8 pg/mL | IL-6 [3, 6]: 600 pg/mL | IL-12 [3, 6]: 145 pg/mL | GM-CSF [3]: 45 | IFN-γ [3]: 7.8 | IL-6 [3]: 600 | IL-12 [3]: 250 | TNF-α [3]: 145

1618 (DNA TCCATGACGTTCCTGATGCT; chemistry not given here) [Oligonucleotide 1618]
IL-6 (pg/ml) CH12.LX [2]: 2109 ± 291 pg/mL | IL-6 (pg/ml) CH12.LX [2, 4]: 2109 ± 291 pg/mL | SI (stimulation index, [3H] uridine uptake, fold increase from unstimulated control) [2]: 12.9 ± 0.7 | SI (stimulation index, [3H] uridine uptake) [2]: 12.9 ± 0.7 | IgM [2]: 10425 ± 674 ng/mL | IL-6 (pg/ml) SPLENIC B CELL [2]: 2596 ± 166 pg/mL | IL-6 (pg/ml) SPLENIC B CELL [2, 4]: 2596 ± 166 pg/mL | TNF-α [3, 5]: 60 pg/mL | GM-CSF [3, 6]: 15.6 pg/mL | IFN-γ [3, 6]: 15.6 pg/mL | IL-6 [3, 6]: 300 pg/mL | IL-12 [3, 6]: 62 pg/mL | GM-CSF [3]: 15.6 | IFN-γ [3]: 15.6 | IL-6 [3]: 300 | IL-12 [3]: 62 | TNF-α [3]: 60

1634 (DNA TCCATGTCGCTCCTGATGCT; chemistry not given here) [Oligonucleotide 1634]
IL-6 (pg/ml) CH12.LX [2]: 1049 ± 223 pg/mL | IL-6 (pg/ml) CH12.LX [2, 4]: 1049 ± 223 pg/mL | SI (stimulation index, [3H] uridine uptake, fold increase from unstimulated control) [2]: 9.2 ± 0.9 | SI (stimulation index, [3H] uridine uptake) [2]: 9.2 ± 0.9 | IgM [2]: 6256 ± 261 ng/mL | IL-6 (pg/ml) SPLENIC B CELL [2]: 1671 ± 175 pg/mL | IL-6 (pg/ml) SPLENIC B CELL [2, 4]: 1671 ± 175 pg/mL | TNF-α [3, 5]: 400 pg/mL | GM-CSF [3, 6]: 85 pg/mL | IFN-γ [3, 6]: 40 pg/mL | IL-6 [3, 6]: 300 pg/mL | IL-12 [3, 6]: 400 pg/mL | GM-CSF [3]: 85 | IFN-γ [3]: 40 | IL-6 [3]: 300 | IL-12 [3]: 200 | TNF-α [3]: 400

1636 (DNA TCCATGTCGATCCTGATGCT; chemistry not given here) [Oligonucleotide 1636]
IL-6 (pg/ml) CH12.LX [2]: 1181 ± 76 pg/mL | IL-6 (pg/ml) CH12.LX [2, 4]: 1181 ± 76 pg/mL | SI (stimulation index, [3H] uridine uptake, fold increase from unstimulated control) [2]: 5.4 ± 0.4 | SI (stimulation index, [3H] uridine uptake) [2]: 5.4 ± 0.4 | IgM [2]: 3983 ± 485 ng/mL | IL-6 (pg/ml) SPLENIC B CELL [2]: 947 ± 132 pg/mL | IL-6 (pg/ml) SPLENIC B CELL [2, 4]: 947 ± 132 pg/mL | TNF-α [3, 5]: 250 pg/mL | GM-CSF [3, 6]: 40 pg/mL | IFN-γ [3, 6]: 35 pg/mL | IL-6 [3, 6]: 325 pg/mL | IL-12 [3, 6]: 250 pg/mL | GM-CSF [3]: 40 | IFN-γ [3]: 35 | IL-6 [3]: 325 | IL-12 [3]: 0 | TNF-α [3]: 250

All-(Rp)-d[GsCsCsTsCsAsGsTsCsTsGsCsTsTsCsGsCsAsCsC] (DNA GCCTCAGTCTGCTTCGCACC; DNA, all [Rp], methylation of C not given here) [Oligonucleotide 101]
Stimulation Index, 3H Uridine ([1]; US 6,239,116 Table 1): 2.9 ± 0.2 | Stimulation Index, IgM Production ([1]; US 6,239,116 Table 1): 13.6 ± 2.0 | Stimulation Index, 3H Uridine [1]: 2.9 ± 0.2
